Data published in ChEMBL document CHEMBL5661943, “ASAP - In vitro antiviral effect” (2024).
Several values for one entry are separate records, joined by “and”; a condition that tells them apart may be missing. Equal entries are not always repeated.

What was measured:
Zika virus [1] = assay: EC50 is reported via analysis of immunofluorescence staining. The assay has been performed by Icahn School of Medicine at Mount Sinai.; type: functional, organism-based, Chlorocebus sabaeus, VeroE6/TMPRSS2; settings: for EC90: P-gp concentration 2 uM, P-gp inhibitor Elacidar
dengue virus type 2 [2] = assay: Functional assay to measure dose dependent changes in antiviral-drug inhibitory efficacy against Dengue virus type 2 New Guinea C in Vero E6 miRFP670 cells (cotreated with P-gp inhibitor, CP100356). Cells are treated with antiviral candidates that are serially diluted, following infection, cells are fixed. EC50 is reported via analysis of fluorescence intensity using high-content imager. The …; type: organism-based, Chlorocebus sabaeus, Vero C1008; settings: for EC90: P-gp concentration 500 nM, P-gp inhibitor CP100356
dengue virus type 2 [3] = assay: Functional immunofluorescence assay to measure dose dependent changes in antiviral-drug inhibitory efficacy against Dengue virus type 2 Thailand/16681/84 in Vero E6/TMPRSS2 cells (cotreated with P-gp inhibitor, Elacridar). Cells are treated with antiviral candidates that are serially diluted, following infection, cells are fixed. EC50 is reported via analysis of immunofluorescence staining. The assay has been performed by Icahn School of Medicine at Mount Sinai.; type: organism-based, Chlorocebus sabaeus, VeroE6/TMPRSS2; settings: Dengue virus
Zika virus [4] = assay: Functional CPE-based assay to measure dose dependent changes in antiviral-drug inhibitory efficacy against Zika virus MR766 in Vero E6 miRFP670 cells (cotreated with P-gp inhibitor, CP100356). Cells are treated with antiviral candidates that are serially diluted. EC50 is reported via analysis of MTS assay as a readout of CPE. The assay has been performed by KU Leuven.; type: organism-based, Chlorocebus sabaeus, Vero C1008; settings: for EC90: P-gp concentration 500 nM, P-gp inhibitor CP100356

O=C(NCC(F)F)[C@H](Nc1ccc2c(c1)CNC2)c1cc(Cl)cc(C2CC2)c1
EC90 (Zika virus [1]; Baseline response 0 %, Hill slope -0.396, Maximum measured 99.851 %, Maximum response 100 %, Minimum measured 40.832 %, R squared 0.557): > 5.56 µM | EC90 (Zika virus [1]; Baseline response 0 %, Hill slope -0.815, Maximum measured 101.881 %, Maximum response 50 %, Minimum measured 25.102 %, R squared 0.285): > 5.56 µM | EC90 (Zika virus [1]; Zika virus, VeroE6/TMPRSS2, Maximum measured 91.336 %, Minimum measured 34.975 %): > 1.85 µM | EC90 (Zika virus [1]; Zika virus, VeroE6/TMPRSS2, Baseline response 0 %, Hill slope -0.205, Maximum measured 120.59 %, Maximum response 100 %, Minimum measured 43.549 %, R squared 0.084): > 5.56 µM | EC50 (dengue virus type 2 [2]; Dengue virus, Vero C1008): > 50 µM | EC90 (dengue virus type 2 [2]; Dengue virus, Vero C1008, Maximum measured 140.556 %, Minimum measured 63.358 %): > 50 µM | EC90 (dengue virus type 2 [2]; Dengue virus, Vero C1008, Maximum measured 143.73 %, Minimum measured 67.897 %): > 25 µM | EC90 (dengue virus type 2 [2]; Dengue virus, Vero C1008, Baseline response 0 %, Hill slope -0.993, Maximum measured 109.944 %, Maximum response 100 %, Minimum measured 57.337 %, R squared 0.512): > 50 µM | EC50 (dengue virus type 2 [2]; vero c1008): > 25 µM | EC50 (dengue virus type 2 [3]; VeroE6/TMPRSS2): > 50 µM | EC90 (dengue virus type 2 [3]; VeroE6/TMPRSS2, Maximum measured 212.671 %, Minimum measured 62.173 %, P-gp concentration 2 uM, P-gp inhibitor Elacidar): > 50 µM | EC90 (Zika virus [4]; Baseline response 0 %, EC90 CI (lower) 0 uM, EC90 CI (upper) 0 uM, Hill slope 19.422, Maximum measured 104.146 %, Maximum response 100 %, Minimum measured 1.001 %, R squared 0.972): 3.54 µM | EC90 (Zika virus [4]; Baseline response 0 %, EC90 CI (lower) 1.312 uM, EC90 CI (upper) 1.931 uM, Hill slope 6.18, Maximum measured 105.591 %, Maximum response 100 %, Minimum measured 3.511 %, R squared 0.974): 1.59 µM | EC90 (Zika virus [4]; Baseline response 0 %, EC90 CI (lower) 26.105 uM, EC90 CI (upper) 61.789 uM, Hill slope 1.533, Maximum measured 103.939 %, Maximum response 100 %, Minimum measured 1.936 %, R squared 0.959): 40.2 µM | EC50 (Zika virus [4]; vero c1008): 9.58 µM and 3.16 µM and 1.11 µM

Cc1cc(C(=O)Nc2ccc3c(c2)CNC3)c2cn[nH]c2c1
EC90 (Zika virus [1]; Baseline response 0 %, Hill slope -2.011, Maximum measured 89.225 %, Maximum response 60 %, Minimum measured 14.739 %, R squared 0.55): > 50 µM | EC90 (Zika virus [1]; Zika virus, VeroE6/TMPRSS2, Baseline response 0 %, Hill slope -0.435, Maximum measured 146.607 %, Maximum response 100 %, Minimum measured 37.409 %, R squared 0.47): > 50 µM | EC50 (Zika virus [1]; veroe6/tmprss2): 4.92 µM and 30 µM | EC50 (dengue virus type 2 [2]; Dengue virus, Vero C1008): > 50 µM | EC90 (dengue virus type 2 [2]; Dengue virus, Vero C1008, Maximum measured 131.325 %, Minimum measured 92.066 %): > 50 µM | EC50 (dengue virus type 2 [3]; VeroE6/TMPRSS2): > 16.7 µM | EC90 (dengue virus type 2 [3]; VeroE6/TMPRSS2, Baseline response 0 %, Hill slope -0.131, Maximum measured 111.871 %, Maximum response 100 %, Minimum measured 74.867 %, P-gp concentration 2 uM, R squared 0.056, P-gp inhibitor Elacidar): > 16.7 µM | EC50 (Zika virus [4]; Zika virus, Vero C1008): 7.79 µM | EC90 (Zika virus [4]; Zika virus, Vero C1008, Baseline response 0 %, EC90 CI (lower) 4.895 uM, EC90 CI (upper) 50.446 uM, Hill slope 3.132, Maximum measured 172.887 %, Maximum response 100 %, Minimum measured 3.006 %, R squared 0.777): 15.7 µM

O=C(Nc1ccc2c(c1)CCNCC2)c1cc(Cl)cc2[nH]ncc12
EC50 (Zika virus [1]; Zika virus, VeroE6/TMPRSS2): > 50 µM | EC90 (Zika virus [1]; Zika virus, VeroE6/TMPRSS2, Maximum measured 112.155 %, Minimum measured 46.888 %): > 50 µM | EC50 (dengue virus type 2 [2]; Dengue virus, Vero C1008): > 25 µM | EC90 (dengue virus type 2 [2]; Dengue virus, Vero C1008, Baseline response 0 %, Hill slope -0.681, Maximum measured 107.454 %, Maximum response 100 %, Minimum measured 77.093 %, R squared 0.152): > 25 µM | EC50 (dengue virus type 2 [3]; VeroE6/TMPRSS2): > 50 µM | EC90 (dengue virus type 2 [3]; VeroE6/TMPRSS2): > 50 µM | EC50 (Zika virus [4]; Zika virus, Vero C1008): > 50 µM | EC90 (Zika virus [4]; Zika virus, Vero C1008, Maximum measured -0.637 %, Minimum measured -2.713 %): > 50 µM

Cc1ccc(NC(=O)c2cc(Cl)cc3[nH]ncc23)cc1CN
EC50 (Zika virus [1]; Zika virus, VeroE6/TMPRSS2): 23.7 µM | EC90 (Zika virus [1]; Zika virus, VeroE6/TMPRSS2, Baseline response 0 %, Hill slope -0.507, Maximum measured 128.919 %, Maximum response 100 %, Minimum measured 43.47 %, R squared 0.43): > 50 µM | EC50 (dengue virus type 2 [2]; Dengue virus, Vero C1008): 29.2 µM | EC90 (dengue virus type 2 [2]; Dengue virus, Vero C1008, Baseline response 0 %, Hill slope -1.708, Maximum measured 106.876 %, Maximum response 100 %, Minimum measured 12.632 %, R squared 0.516): > 50 µM | EC50 (dengue virus type 2 [3]; VeroE6/TMPRSS2): > 50 µM | EC90 (dengue virus type 2 [3]; VeroE6/TMPRSS2, Baseline response 0 %, Hill slope -2.664, Maximum measured 202.734 %, Maximum response 169.492 %, Minimum measured 72.11 %, P-gp concentration 2 uM, R squared 0.716, P-gp inhibitor Elacidar): > 50 µM | EC50 (Zika virus [4]; Zika virus, Vero C1008): > 50 µM | EC90 (Zika virus [4]; Zika virus, Vero C1008, Maximum measured -0.519 %, Minimum measured -6.318 %): > 50 µM

CC(=O)Nc1cc(Br)cc(C(=O)Nc2ccc3c(c2)CNC3)c1
EC90 (Zika virus [1]; Baseline response 0 %, Hill slope -0.518, Maximum measured 97.567 %, Maximum response 50 %, Minimum measured 37.703 %, R squared 0.045): > 50 µM | EC50 (Zika virus [1]; Zika virus, VeroE6/TMPRSS2): > 50 µM | EC90 (Zika virus [1]; Zika virus, VeroE6/TMPRSS2, Baseline response 0 %, Hill slope -0.196, Maximum measured 132.114 %, Maximum response 100 %, Minimum measured 61.615 %, R squared 0.024): > 50 µM | EC50 (dengue virus type 2 [2]; Dengue virus, Vero C1008): > 50 µM | EC90 (dengue virus type 2 [2]; Dengue virus, Vero C1008, Baseline response 0 %, Hill slope 0.424, Maximum measured 105.264 %, Maximum response 100 %, Minimum measured 74.207 %, R squared 0.146): > 50 µM | EC50 (dengue virus type 2 [3]; VeroE6/TMPRSS2): > 50 µM | EC90 (dengue virus type 2 [3]; VeroE6/TMPRSS2, Maximum measured 175.614 %, Minimum measured 132.324 %, P-gp concentration 2 uM, P-gp inhibitor Elacidar): > 50 µM | EC50 (Zika virus [4]; Zika virus, Vero C1008): > 50 µM | EC90 (Zika virus [4]; Zika virus, Vero C1008, Baseline response 0 %, Hill slope -0.049, Maximum measured 5.994 %, Maximum response 100 %, Minimum measured 2.41 %, R squared 0.015): > 50 µM

N#Cc1cc(C(=O)Nc2ccc3c(c2)CNC3)cc(C(F)(F)F)c1
EC50 (Zika virus [1]; Zika virus, VeroE6/TMPRSS2): > 50 µM | EC90 (Zika virus [1]; Zika virus, VeroE6/TMPRSS2, Maximum measured 132.778 %, Minimum measured 43.807 %): > 50 µM | EC50 (dengue virus type 2 [2]; Dengue virus, Vero C1008): > 50 µM | EC90 (dengue virus type 2 [2]; Dengue virus, Vero C1008, Baseline response 0 %, Hill slope 0.474, Maximum measured 101.337 %, Maximum response 100 %, Minimum measured 73.182 %, R squared 0.159): > 50 µM | EC50 (dengue virus type 2 [3]; VeroE6/TMPRSS2): 23.5 µM | EC90 (dengue virus type 2 [3]; VeroE6/TMPRSS2, Baseline response 0 %, Hill slope -2.224, Maximum measured 139.741 %, Maximum response 100 %, Minimum measured 16.816 %, P-gp concentration 2 uM, R squared 0.66, P-gp inhibitor Elacidar): > 50 µM | EC50 (Zika virus [4]; Zika virus, Vero C1008): > 50 µM | EC90 (Zika virus [4]; Zika virus, Vero C1008, Baseline response 0 %, Hill slope 0.826, Maximum measured 10.885 %, Maximum response 100 %, Minimum measured 0.969 %, R squared 0.373): > 50 µM

O=C(Nc1cc(Cl)cc(C(=O)Nc2ccc(-n3nn[nH]c3=O)cc2)c1)OCc1ccccc1
EC50 (Zika virus [1]; Zika virus, VeroE6/TMPRSS2): 49.1 µM | EC90 (Zika virus [1]; Zika virus, VeroE6/TMPRSS2, Baseline response 0 %, Hill slope -16.502, Maximum measured 156.276 %, Maximum response 100 %, Minimum measured 42.402 %, R squared 0.326): > 50 µM | EC90 (dengue virus type 2 [2]; Baseline response 0 %, EC90 CI (lower) 3.172 uM, EC90 CI (upper) 10.269 uM, Hill slope -8.96, Maximum measured 107.351 %, Maximum response 100 %, Minimum measured 0.837 %, R squared 0.832): 9.32 µM | EC90 (dengue virus type 2 [2]; Baseline response 0 %, Hill slope -35.644, Maximum measured 130.696 %, Maximum response 100 %, Minimum measured 29.339 %, R squared 0.657): > 50 µM | EC50 (dengue virus type 2 [2]; vero c1008): 7.29 µM and 48.8 µM | EC50 (dengue virus type 2 [3]; VeroE6/TMPRSS2): 11.4 µM | EC90 (dengue virus type 2 [3]; VeroE6/TMPRSS2, Baseline response 0 %, Hill slope -0.45, Maximum measured 123.141 %, Maximum response 100 %, Minimum measured 41.064 %, P-gp concentration 2 uM, R squared 0.456, P-gp inhibitor Elacidar): > 16.7 µM | EC50 (Zika virus [4]; Zika virus, Vero C1008): > 50 µM | EC90 (Zika virus [4]; Zika virus, Vero C1008, Baseline response 0 %, Hill slope 1.628, Maximum measured 15.335 %, Maximum response 100 %, Minimum measured -0.05 %, R squared 0.878): > 50 µM

CCc1cc(C(=O)Nc2cccc(-c3nnn[nH]3)c2)sc1-c1ccc(Cl)cc1
EC50 (Zika virus [1]; Zika virus, VeroE6/TMPRSS2): > 16.7 µM | EC90 (Zika virus [1]; Zika virus, VeroE6/TMPRSS2, Maximum measured 109.494 %, Minimum measured 75.609 %): > 16.7 µM | EC50 (dengue virus type 2 [2]; Dengue virus, Vero C1008): > 25 µM | EC90 (dengue virus type 2 [2]; Dengue virus, Vero C1008, Baseline response 0 %, Hill slope 0.831, Maximum measured 164.159 %, Maximum response 100 %, Minimum measured 71.563 %, R squared 0.225): > 25 µM | EC50 (dengue virus type 2 [3]; VeroE6/TMPRSS2): > 16.7 µM | EC90 (dengue virus type 2 [3]; VeroE6/TMPRSS2, Baseline response 0 %, Hill slope -0.101, Maximum measured 96.419 %, Maximum response 100 %, Minimum measured 50.045 %, P-gp concentration 2 uM, R squared 0.073, P-gp inhibitor Elacidar): > 16.7 µM | EC50 (Zika virus [4]; Zika virus, Vero C1008): > 50 µM | EC90 (Zika virus [4]; Zika virus, Vero C1008, Baseline response 0 %, Hill slope -0.614, Maximum measured 5.848 %, Maximum response 100 %, Minimum measured -4.216 %, R squared 0.418): > 50 µM
